Test results published in ChEMBL document CHEMBL1268934, “Design, synthesis, and subtype selectivity of 3,6-disubstituted β-carbolines at Bz/GABA(A)ergic receptors. SAR and studies directed toward agents for treatment of alcohol abuse” (Bioorg Med Chem, 2010).

Experiments:
Type in all cases: cell-based, HEK293
[1] = molecular target: T1, GABA-A receptor; alpha-1/beta-3/gamma-2 (Homo sapiens, UniProt P14867+P18507+P28472); experiment: Displacement of [3H]flunitrazepam from human recombinant GABAA alpha-1-beta-3-gamma-2 receptor expressed in HEK cells by liquid scintillation counting
T1 sequence (P14867 whole entry): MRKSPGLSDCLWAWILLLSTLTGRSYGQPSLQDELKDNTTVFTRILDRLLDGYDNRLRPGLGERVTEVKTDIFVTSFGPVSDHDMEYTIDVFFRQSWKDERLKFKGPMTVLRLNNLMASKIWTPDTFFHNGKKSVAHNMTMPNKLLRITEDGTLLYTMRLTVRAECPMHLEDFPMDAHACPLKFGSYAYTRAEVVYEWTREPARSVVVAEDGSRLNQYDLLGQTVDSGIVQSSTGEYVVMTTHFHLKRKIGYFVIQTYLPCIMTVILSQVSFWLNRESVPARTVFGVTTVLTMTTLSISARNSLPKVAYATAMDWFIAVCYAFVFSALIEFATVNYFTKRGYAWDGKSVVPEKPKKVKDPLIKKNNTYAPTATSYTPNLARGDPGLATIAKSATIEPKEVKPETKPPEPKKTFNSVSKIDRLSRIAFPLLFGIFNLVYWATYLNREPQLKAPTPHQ
T1 sequence (P18507 whole entry): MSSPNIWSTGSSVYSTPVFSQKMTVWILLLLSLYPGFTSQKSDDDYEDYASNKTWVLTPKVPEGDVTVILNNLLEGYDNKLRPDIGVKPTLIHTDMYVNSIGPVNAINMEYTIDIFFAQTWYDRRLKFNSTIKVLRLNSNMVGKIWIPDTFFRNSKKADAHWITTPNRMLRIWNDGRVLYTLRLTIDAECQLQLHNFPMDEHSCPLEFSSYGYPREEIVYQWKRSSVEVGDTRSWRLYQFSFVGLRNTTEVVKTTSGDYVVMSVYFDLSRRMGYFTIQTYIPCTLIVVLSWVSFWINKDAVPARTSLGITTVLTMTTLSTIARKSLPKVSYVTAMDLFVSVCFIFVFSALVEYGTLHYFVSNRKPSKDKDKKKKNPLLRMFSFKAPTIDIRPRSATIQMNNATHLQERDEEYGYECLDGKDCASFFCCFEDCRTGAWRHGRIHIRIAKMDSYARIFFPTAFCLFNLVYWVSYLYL
T1 sequence (P28472 whole entry): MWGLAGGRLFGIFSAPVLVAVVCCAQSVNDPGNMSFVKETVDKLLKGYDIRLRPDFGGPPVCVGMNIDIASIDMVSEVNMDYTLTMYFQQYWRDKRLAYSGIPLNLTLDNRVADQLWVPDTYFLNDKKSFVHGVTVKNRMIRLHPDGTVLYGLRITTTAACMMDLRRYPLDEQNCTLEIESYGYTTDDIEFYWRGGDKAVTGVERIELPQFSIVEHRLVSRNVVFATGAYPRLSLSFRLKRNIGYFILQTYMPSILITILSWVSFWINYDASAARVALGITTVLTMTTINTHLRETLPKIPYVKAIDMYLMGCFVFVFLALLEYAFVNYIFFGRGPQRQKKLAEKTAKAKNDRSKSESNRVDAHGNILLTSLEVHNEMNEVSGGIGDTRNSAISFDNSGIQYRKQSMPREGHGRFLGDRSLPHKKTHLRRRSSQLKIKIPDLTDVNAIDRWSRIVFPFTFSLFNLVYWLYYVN

[2] = molecular target: T2, GABA-A receptor; alpha-2/beta-3/gamma-2 (Homo sapiens, UniProt P18507+P28472+P47869); experiment: Displacement of [3H]flunitrazepam from human recombinant GABAA alpha-2-beta-3-gamma-2 receptor expressed in HEK cells by liquid scintillation counting
T2 sequence (P18507 whole entry): T1 sequence (P18507 whole entry)
T2 sequence (P28472 whole entry): T1 sequence (P28472 whole entry)
T2 sequence (P47869 whole entry): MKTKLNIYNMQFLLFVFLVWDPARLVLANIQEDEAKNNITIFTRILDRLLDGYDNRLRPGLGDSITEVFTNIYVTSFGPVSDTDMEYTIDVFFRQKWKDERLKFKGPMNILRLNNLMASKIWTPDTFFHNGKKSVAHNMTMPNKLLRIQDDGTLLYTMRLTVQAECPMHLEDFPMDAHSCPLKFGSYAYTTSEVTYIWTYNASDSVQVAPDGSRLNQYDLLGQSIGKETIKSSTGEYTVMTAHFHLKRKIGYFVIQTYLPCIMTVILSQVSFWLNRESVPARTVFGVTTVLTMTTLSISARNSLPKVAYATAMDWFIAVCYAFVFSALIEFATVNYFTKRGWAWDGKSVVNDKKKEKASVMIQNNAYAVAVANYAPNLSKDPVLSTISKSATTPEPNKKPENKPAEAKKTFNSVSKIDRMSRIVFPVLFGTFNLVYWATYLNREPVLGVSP

[3] = molecular target: T3, GABA-A receptor; alpha-3/beta-3/gamma-2 (Homo sapiens, UniProt P18507+P28472+P34903); experiment: Displacement of [3H]flunitrazepam from human recombinant GABAA alpha-3-beta-3-gamma-2 receptor expressed in HEK cells by liquid scintillation counting
T3 sequence (P18507 whole entry): T1 sequence (P18507 whole entry)
T3 sequence (P28472 whole entry): T1 sequence (P28472 whole entry)
T3 sequence (P34903 whole entry): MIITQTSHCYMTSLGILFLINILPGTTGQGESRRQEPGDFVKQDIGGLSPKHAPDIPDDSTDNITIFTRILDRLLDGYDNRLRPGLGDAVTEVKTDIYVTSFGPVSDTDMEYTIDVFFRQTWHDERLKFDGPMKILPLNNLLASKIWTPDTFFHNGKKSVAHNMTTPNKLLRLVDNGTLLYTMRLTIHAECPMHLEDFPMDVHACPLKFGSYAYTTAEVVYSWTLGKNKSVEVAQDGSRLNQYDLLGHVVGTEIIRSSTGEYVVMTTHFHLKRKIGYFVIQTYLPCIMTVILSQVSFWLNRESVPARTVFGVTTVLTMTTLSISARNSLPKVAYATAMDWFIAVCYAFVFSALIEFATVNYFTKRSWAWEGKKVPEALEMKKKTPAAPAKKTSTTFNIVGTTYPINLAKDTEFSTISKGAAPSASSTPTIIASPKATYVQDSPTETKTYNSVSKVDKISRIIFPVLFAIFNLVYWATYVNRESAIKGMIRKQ

[4] = molecular target: T4, GABA-A receptor; alpha-5/beta-3/gamma-2 (Homo sapiens, UniProt P18507+P28472+P31644); experiment: Displacement of [3H]flunitrazepam from human recombinant GABAA alpha-5-beta-3-gamma-2 receptor expressed in HEK cells by liquid scintillation counting
T4 sequence (P18507 whole entry): T1 sequence (P18507 whole entry)
T4 sequence (P28472 whole entry): T1 sequence (P28472 whole entry)
T4 sequence (P31644 whole entry): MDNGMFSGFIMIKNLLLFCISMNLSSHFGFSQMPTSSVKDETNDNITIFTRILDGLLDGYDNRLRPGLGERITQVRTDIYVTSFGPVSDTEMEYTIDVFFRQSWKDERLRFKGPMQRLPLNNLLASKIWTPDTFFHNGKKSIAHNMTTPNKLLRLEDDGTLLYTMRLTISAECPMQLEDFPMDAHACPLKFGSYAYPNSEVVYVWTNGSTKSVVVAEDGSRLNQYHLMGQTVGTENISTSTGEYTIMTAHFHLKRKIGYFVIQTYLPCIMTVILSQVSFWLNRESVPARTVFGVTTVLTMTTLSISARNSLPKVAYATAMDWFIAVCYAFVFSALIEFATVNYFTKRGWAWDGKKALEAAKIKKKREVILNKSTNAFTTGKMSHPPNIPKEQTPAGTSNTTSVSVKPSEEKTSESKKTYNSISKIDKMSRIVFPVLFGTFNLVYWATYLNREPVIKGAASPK

[5] = molecular target: GABA-A receptor; alpha-6/beta-3/gamma-2 (Homo sapiens, UniProt P18507+P28472+Q16445); experiment: Displacement of [3H]flunitrazepam from human recombinant GABAA alpha-6-beta-3-gamma-2 receptor expressed in HEK cells by liquid scintillation counting
Chain of GABA-A receptor; alpha-6/beta-3/gamma-2 (Q16445 whole entry, one chain of several): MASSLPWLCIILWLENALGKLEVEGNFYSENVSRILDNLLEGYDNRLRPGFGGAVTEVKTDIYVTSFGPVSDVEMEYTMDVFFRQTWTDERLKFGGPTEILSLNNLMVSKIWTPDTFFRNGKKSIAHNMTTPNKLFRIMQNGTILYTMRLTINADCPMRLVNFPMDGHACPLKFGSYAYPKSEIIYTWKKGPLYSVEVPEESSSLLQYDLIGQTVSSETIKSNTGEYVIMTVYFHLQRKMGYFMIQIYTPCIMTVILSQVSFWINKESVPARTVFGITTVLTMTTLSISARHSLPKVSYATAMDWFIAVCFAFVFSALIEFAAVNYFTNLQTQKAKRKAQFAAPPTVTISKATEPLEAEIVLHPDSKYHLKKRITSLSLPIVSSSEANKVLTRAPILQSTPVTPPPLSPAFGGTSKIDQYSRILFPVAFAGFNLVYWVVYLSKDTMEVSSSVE

[6] = molecular target: GABA A receptor alpha-4/beta-3/gamma-2 (Homo sapiens, UniProt P18507+P28472+P48169); experiment: Displacement of [3H]flunitrazepam from human recombinant GABAA alpha-4-beta-3-gamma-2 receptor expressed in HEK cells by liquid scintillation counting
Chain of GABA A receptor alpha-4/beta-3/gamma-2 (P48169 whole entry, one chain of several): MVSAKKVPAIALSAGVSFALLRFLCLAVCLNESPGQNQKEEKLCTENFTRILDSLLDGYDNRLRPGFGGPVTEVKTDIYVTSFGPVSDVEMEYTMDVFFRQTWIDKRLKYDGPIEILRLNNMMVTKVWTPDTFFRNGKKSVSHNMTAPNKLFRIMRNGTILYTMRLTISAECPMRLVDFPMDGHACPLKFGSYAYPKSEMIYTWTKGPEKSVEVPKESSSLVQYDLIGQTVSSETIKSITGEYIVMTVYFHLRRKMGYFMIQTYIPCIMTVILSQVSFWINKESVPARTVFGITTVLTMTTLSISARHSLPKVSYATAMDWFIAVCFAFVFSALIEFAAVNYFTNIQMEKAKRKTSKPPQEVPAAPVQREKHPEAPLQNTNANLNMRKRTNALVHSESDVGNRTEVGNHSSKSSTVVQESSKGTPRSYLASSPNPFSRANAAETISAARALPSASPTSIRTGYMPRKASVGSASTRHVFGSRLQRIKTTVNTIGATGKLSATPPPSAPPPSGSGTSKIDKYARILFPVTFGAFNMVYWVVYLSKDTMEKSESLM

SMILES | Ki [1] [nM] | Ki [2] [nM] | Ki [3] [nM] | Ki [4] [nM] | Ki [5] [nM] | Ki ([6]; read-out: Ki) [nM] | Ki ([6]; hek293)
O=C(Oc1cc(F)c(F)cc1F)c1cc2c(cn1)[nH]c1ccccc12 | 22 | 177 | 44.8 | 422 | – | – | –
CC(C)CCOc1cc2c3ccccc3nc-2c[nH]1 | – | 3000 | 3000 | 3000 | 10000 | – | –
C#Cc1ccc2c(c1)c1cc(C(=O)OC(C)(C)C)ncc1n2C(=O)OC(C)(C)C | 450 | – | – | – | – | – | –
O=C(OCC(F)(F)F)c1cc2c(cn1)[nH]c1ccc(-c3ccco3)cc12 | 26 | 143 | 117 | 127 | – | – | –
CCOC(=O)c1cc2c(cn1)[nH]c1ccc(C#C[Si](C)(C)C)cc12 | 4.4 | 4.5 | 5.58 | 47 | – | – | –
CC(C)(C)OC(=O)c1cc2c(cn1)[nH]c1ccc(I)cc12 | 14.4 | 44.9 | 123 | 65.3 | > 4000 | > 4000 | –
CC(C)(C)OC(=O)c1ccc2[nH]c3ccc(C#Cc4ccc5[nH]c6ccc(C(=O)OC(C)(C)C)cc6c5c4)cc3c2c1 | 30 | 124 | 100 | > 300 | > 4000 | – | –
CC/C=C/C=C/Oc1cc2c(cn1)[nH]c1ccccc12 | 245 | 818 | 859 | – | – | – | –
CC(C)(C)OC(=O)c1cc2c(cn1)[nH]c1ccc(-c3ccccc3)cc12 | 3.63 | 2.02 | 44.3 | 76.5 | – | – | Not Active
C#Cc1ccc2[nH]c3cnc(C(=O)OC(C)(C)C)cc3c2c1 | 0.972 | – | – | – | 1980 | – | –
CCCCOc1cc2c(cn1)[nH]c1ccccc12 | – | – | – | – | 1000 | – | –
CCC(C)OC(=O)c1cc2c(cn1)[nH]c1ccccc12 (single isomer, unassigned) | – | – | – | – | – | – | Not Active
CC(C)(C)OC(=O)c1cc2c(cn1)[nH]c1ccc(C#CC#Cc3ccc4[nH]c5cnc(C(=O)OC(C)(C)C)cc5c4c3)cc12 | 120 | 1060 | 3940 | – | – | – | –
C[C@H](OC(=O)c1cc2c(cn1)[nH]c1ccccc12)C(F)(F)F | 90 | 931 | 172 | 1850 | > 2000 | > 3000 | –
O=C(OC(C(F)(F)F)C(F)(F)F)c1cc2c(cn1)[nH]c1ccccc12 | 3.99 | 8 | 32 | 461 | – | – | –
CC(OC(=O)c1cc2c(cn1)[nH]c1ccccc12)c1ccccc1 (stereo not given) | 33.5 | – | – | – | – | – | –

SMILES | Ki [1] [nM] | Ki [2] [nM] | Ki [3] [nM] | Ki [4] [nM] | Ki [5] [nM] | Ki ([6]; read-out: Ki) [nM] | Ki ([6]; hek293)
C[C@@H](OC(=O)c1cc2c(cn1)[nH]c1ccccc12)C(F)(F)F | 27 | 343 | 453 | 1850 | > 2000 | > 3000 | –
O=C(OC(C(F)(F)F)C(F)(F)F)c1cc2c(cn1)[nH]c1ccc(I)cc12 | 78 | 301 | 131 | 681 | – | – | –
CCOC(=O)c1cc2c(cn1)[nH]c1ccc(I)cc12 | 4.8 | 31 | 34 | 286 | – | – | –
CC(C)(C)OC(=O)c1cc2c(cn1)[nH]c1ccc(F)cc12 | 1.62 | 4.54 | 14.7 | 4.61 | – | – | –
CC(C)(C)OC(=O)c1cc2c(cn1)[nH]c1ccc(-c3ccco3)cc12 | 2.4 | 13 | 27.5 | 163 | – | – | Not Active
CC(C)(C)OC(=O)c1cc2c(cn1)[nH]c1ccc(-c3cccs3)cc12 | 37 | 166 | 314 | 2860 | – | – | Not Active
O=C(OCC(F)(F)F)c1cc2c(cn1)[nH]c1ccc(-c3cccs3)cc12 | 9.2 | 13 | 72 | 449 | – | – | –
CC(C)(C)OC(=O)c1cc2c(cn1)[nH]c1ccc(C(C)(C)C)cc12 | 2.78 | 8.93 | 24.5 | 7.49 | – | – | –
CC(C)(C)OC(=O)c1cc2c3cc(I)ccc3n(C(=O)OC(C)(C)C)c2cn1 | – | – | – | 1850 | – | – | –
O=C(OCC(F)(F)F)c1cc2c(cn1)[nH]c1ccc(I)cc12 | 12 | 39 | 47 | 122 | – | – | –
CCC(OC(=O)c1cc2c(cn1)[nH]c1ccccc12)C(F)(F)F (stereo not given) | – | – | – | – | > 2000 | – | Not Active
C#Cc1ccc2[nH]c3cnc(C(=O)OCC(F)(F)F)cc3c2c1 | 4.5 | 44.6 | 42.7 | 124 | – | – | –
O=C(OCC(Cl)(Cl)Cl)c1cc2c(cn1)[nH]c1ccccc12 | 10 | 33 | 43 | 189 | – | – | –
CC(C)(C)OC(=O)c1cc2c(cn1)[nH]c1ccc(C#C[Si](C)(C)C)cc12 | 6.8 | 30 | 36 | 108 | – | – | –
O=C(OCC(F)(F)F)c1cc2c(cn1)[nH]c1ccc(-c3ccccc3)cc12 | 25 | 137 | 125 | 299 | – | – | –
CC[C@H](C)OC(=O)c1cc2c(cn1)[nH]c1ccccc12 | – | – | – | – | > 2000 | – | Not Active
